In article PMC11062899, “De novo development of small cyclic peptides that are orally bioavailable” (Nature Chemical Biology, 2023):
pIC50, pKi: −log10 of the molar value. Where “and” joins values, the source holds several entries; their conditions need not be identical. Identical values can stand only once. Like-named read-outs stand apart in the source and are kept apart here.

What was measured:
human α-thrombin = human α-thrombin (Homo sapiens, UniProt P00734); assay: Protease inhibition, Ki for human α-thrombin (fluorogenic substrate Z-Gly-Gly-Arg-AMC); assay type: biochemical; conditions: for Human alpha thrombin inhibition, slope normalized to DMSO: replicates R1-R3
How it was run: (§1)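 Ki derived through Cheng–Prusoff from IC50s (four-parameter logistic fit) against activity of peptide-free controls. Product fluorescence was read every 3 min over 30 min at 25 °C, substrate Z-Gly-Gly-Arg-AMC at 50 μM. Enzyme was 2 nM human or 3 nM rat α-thrombin, pH 7.4 buffer.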

rat α-thrombin = biological target: T1, rat α-thrombin (Rattus norvegicus, UniProt P18292); assay: Protease inhibition, Ki for rat α-thrombin (fluorogenic substrate Z-Gly-Gly-Arg-AMC); assay type: biochemical; conditions: for Rat alpha thrombin inhibition, slope normalized to DMSO: replicates R1-R3
T1 construct: rat α-thrombin (Molecular Innovations) were used at final concentrations of 2 nM and 3 nM; purchased Molecular Innovations
How it was run: as §1

[1] = Passive artificial membrane permeability (PAMPA);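 for Permeability% Average: top well sample relative to theoretical equilibrium sample by TIC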
[2] = peptide concentration 1.00E+02 uM
[3] = peptide concentration 1.19E-05 uM
[4] = peptide concentration 1.22E-02 uM
[5] = peptide concentration 1.25E+01 uM
[6] = peptide concentration 1.53E-03 uM
[7] = peptide concentration 1.56E+00 uM
[8] = peptide concentration 1.91E-04 uM
[9] = peptide concentration 1.95E-01 uM
[10] = peptide concentration 2.38E-05 uM
[11] = peptide concentration 2.44E-02 uM
[12] = peptide concentration 2.50E+01 uM
[13] = peptide concentration 3.05E-03 uM
[14] = peptide concentration 3.12E+00 uM
[15] = peptide concentration 3.81E-04 uM
[16] = peptide concentration 3.91E-01 uM
[17] = peptide concentration 4.77E-05 uM
[18] = peptide concentration 4.88E-02 uM
[19] = peptide concentration 5.00E+01 uM
[20] = peptide concentration 6.10E-03 uM
[21] = peptide concentration 6.25E+00 uM
[22] = peptide concentration 7.63E-04 uM
[23] = peptide concentration 7.81E-01 uM
[24] = peptide concentration 9.54E-05 uM
[25] = peptide concentration 9.77E-02 uM

pKi (human α-thrombin; average of R1-R3, read-out: Human alpha thrombin inhibition, Ki Average): 5.42
Human alpha thrombin inhibition, slope normalized to DMSO (human α-thrombin; [2]): 24.9 and 25.0 and 20.5
Human alpha thrombin inhibition, slope normalized to DMSO (human α-thrombin; [3]): 103.5 and 123.5 and 102.0
Human alpha thrombin inhibition, slope normalized to DMSO (human α-thrombin; [4]): 106.6 and 86.5 and 61.9
Human alpha thrombin inhibition, slope normalized to DMSO (human α-thrombin; [5]): 42.7 and 42.4 and 47.7
Human alpha thrombin inhibition, slope normalized to DMSO (human α-thrombin; [6]): 60.4 and 64.9 and 105.1
Human alpha thrombin inhibition, slope normalized to DMSO (human α-thrombin; [7]): 69.9 and 77.6 and 68.9
Human alpha thrombin inhibition, slope normalized to DMSO (human α-thrombin; [8]): 105.9 and 100.1 and 65.2
Human alpha thrombin inhibition, slope normalized to DMSO (human α-thrombin; [9]): 62.1 and 70.8 and 60.8
Human alpha thrombin inhibition, slope normalized to DMSO (human α-thrombin; [10]): 104.8 and 103.3 and 108.6
Human alpha thrombin inhibition, slope normalized to DMSO (human α-thrombin; [11]): 60.0 and 97.7 and 99.0
Human alpha thrombin inhibition, slope normalized to DMSO (human α-thrombin; [12]): 33.7 and 37.4 and 37.6
Human alpha thrombin inhibition, slope normalized to DMSO (human α-thrombin; [13]): 90.7 and 95.7 and 101.5
Human alpha thrombin inhibition, slope normalized to DMSO (human α-thrombin; [14]): 61.5 and 74.1 and 46.2
Human alpha thrombin inhibition, slope normalized to DMSO (human α-thrombin; [15]): 102.1 and 112.0 and 80.2
Human alpha thrombin inhibition, slope normalized to DMSO (human α-thrombin; [16]): 89.5 and 72.3
Human alpha thrombin inhibition, slope normalized to DMSO (human α-thrombin; [17]): 107.9 and 97.7 and 98.2
Human alpha thrombin inhibition, slope normalized to DMSO (human α-thrombin; [18]): 58.9 and 84.7 and 96.6
Human alpha thrombin inhibition, slope normalized to DMSO (human α-thrombin; [19]): 23.5 and 29.5 (2×)
Human alpha thrombin inhibition, slope normalized to DMSO (human α-thrombin; [20]): 76.0 and 102.5 and 99.2
Human alpha thrombin inhibition, slope normalized to DMSO (human α-thrombin; [21]): 68.9 and 63.0 and 35.5
Human alpha thrombin inhibition, slope normalized to DMSO (human α-thrombin; [22]): 61.7 and 101.5 and 87.5
Human alpha thrombin inhibition, slope normalized to DMSO (human α-thrombin; [23]): 99.5 and 72.0 and 89.1
Human alpha thrombin inhibition, slope normalized to DMSO (human α-thrombin; [24]): 106.0 and 103.1 and 118.2
Human alpha thrombin inhibition, slope normalized to DMSO (human α-thrombin; [25]): 62.3 and 75.9 and 55.0
pKi (rat α-thrombin; average of R1-R3, read-out: Rat alpha thrombin inhibition, Ki Average): 5.83
Rat alpha thrombin inhibition, slope normalized to DMSO (rat α-thrombin; [2]): 8.5 and 10.5 and 9.7
Rat alpha thrombin inhibition, slope normalized to DMSO (rat α-thrombin; [3]): 107.2 and 105.4 and 103.1
Rat alpha thrombin inhibition, slope normalized to DMSO (rat α-thrombin; [4]): 105.9 and 100.2 and 97.5
Rat alpha thrombin inhibition, slope normalized to DMSO (rat α-thrombin; [5]): 28.9 and 25.6 and 11.1
Rat alpha thrombin inhibition, slope normalized to DMSO (rat α-thrombin; [6]): 104.7 and 100.1 and 100.7
Rat alpha thrombin inhibition, slope normalized to DMSO (rat α-thrombin; [7]): 60.2 and 60.7 and 63.3
Rat alpha thrombin inhibition, slope normalized to DMSO (rat α-thrombin; [8]): 101.0 and 93.6 and 80.4
Rat alpha thrombin inhibition, slope normalized to DMSO (rat α-thrombin; [9]): 77.4 and 91.6 and 90.6
Rat alpha thrombin inhibition, slope normalized to DMSO (rat α-thrombin; [10]): 99.9 and 95.1 and 101.1
Rat alpha thrombin inhibition, slope normalized to DMSO (rat α-thrombin; [11]): 106.7 and 94.6 and 110.9
Rat alpha thrombin inhibition, slope normalized to DMSO (rat α-thrombin; [12]): 3.6 and 15.7 and 17.5
Rat alpha thrombin inhibition, slope normalized to DMSO (rat α-thrombin; [13]): 104.4 and 102.5 and 99.7
Rat alpha thrombin inhibition, slope normalized to DMSO (rat α-thrombin; [14]): 54.9 and 53.5 and 52.8
Rat alpha thrombin inhibition, slope normalized to DMSO (rat α-thrombin; [15]): 103.0 and 99.2 and 100.1
Rat alpha thrombin inhibition, slope normalized to DMSO (rat α-thrombin; [16]): 58.4 and 57.7 and 87.4
Rat alpha thrombin inhibition, slope normalized to DMSO (rat α-thrombin; [17]): 109.2 and 85.2 and 99.3
Rat alpha thrombin inhibition, slope normalized to DMSO (rat α-thrombin; [18]): 100.3 and 95.3 and 106.1
Rat alpha thrombin inhibition, slope normalized to DMSO (rat α-thrombin; [19]): 16.0 and 15.4 and 14.7
Rat alpha thrombin inhibition, slope normalized to DMSO (rat α-thrombin; [20]): 102.6 and 94.5 and 101.1
Rat alpha thrombin inhibition, slope normalized to DMSO (rat α-thrombin; [21]): 50.1 and 39.5 and 38.6
Rat alpha thrombin inhibition, slope normalized to DMSO (rat α-thrombin; [22]): 102.8 and 105.9 and 89.3
Rat alpha thrombin inhibition, slope normalized to DMSO (rat α-thrombin; [23]): 79.5 and 71.2 and 76.6
Rat alpha thrombin inhibition, slope normalized to DMSO (rat α-thrombin; [24]): 103.0 and 96.4 and 84.9
Rat alpha thrombin inhibition, slope normalized to DMSO (rat α-thrombin; [25]): 100.1 and 93.3 and 83.6
pIC50 (rat α-thrombin; single replicates R1-R3, read-out: Rat alpha thrombin inhibition, IC50): 5.59 and 5.56 and 5.57
PAMPA permeability: % permeability ([1]; 50 μM, 12–18 h, acceptor concentration relative to equilibrium): 42 ± 11%
Permeability% (single replicates R1–R3) ([1]; 50 μM, 13 h (Fig. 5d)): 47.12% and 50.47% and 29.38%
Permeability% Average ([1]; 50 μM, 13 h (Fig. 5d)): 42.3%
Papp at 50 μM ([1]; PAMPA, pH 7.4): 4.9 ×10⁻⁶ cm/s
SMILES: O=C1C[C@H]2CCCN2C(=O)[C@H](Cc2ccccc2)NC(=O)[C@@H](NC(=O)c2ccc(Cl)s2)CC=CCCCN1 [compound 40]
Ki (rat α-thrombin; single replicates R1-R3, read-out: Rat alpha thrombin inhibition, Ki): 1.44 µM (2×) and 1.54 µM (2×) and 1.48 µM (2×)
